Measured values as given in patent publication US20220168310A1, “INHIBITION OF ADENOVIRUS WITH FILOCICLOVIR” (Microbiotix, Inc., priority 2019, published 2022).
Entries after “also recorded” stand apart in the source; their conditions may differ.

Key:
Adenovirus 5 (AdV5) = test: Cytopathic effects (CPE) reduction assay, AdV5 in HFF cells, 384-well; format: cell-based, human adenovirus
Experimental: Antiviral and cytotoxicity data were obtained in a series of three to five separate experiments for each virus to provide an accurate estimate of antiviral activity and statistical data. Each assay included positive and negative control compounds as well as infected and uninfected controls to ensure the integrity of the experiment.
The CPE reduction assays were performed in monolayers of human foreskin fibroblast (HFF) cells (5000/well) in 384-well plates in assay media consisting of MEM with Earle's salts, 2% FBS and standard concentrations of L-glutamine, penicillin and gentamycin. 5000 cells were seeded in 384-well microtiter plates and incubated at 37° C. in a humidified 5% CO2 incubator for 24 hours to allow for formation of confluent monolayers.
Cell monolayers were infected at a multiplicity of infection (MOI) of approximately 0.005 PFU/cell with virus strains including AdV5. […] Cytopathology was determined by the addition of CellTiter-Glo® reagent (Promega, Madison, Wis.).

AdV6 [1] = test: Delayed treatment with 10 mg/kg filociclovir after AdV6 challenge in immunosuppressed hamsters (Example 7); format: in vivo, Syrian hamsters
Experimental: Aliquots are allowed to equilibrate to room temperature before dosing.
Hamsters were distributed into 8 groups, 15 hamsters each (Table 5), immunosuppressed as described above, and then injected i.v. with vehicle or 4×10^10 plaque forming units (PFU) of AdV6 per kg. Filociclovir was administered p.o. at 10 mg/kg q.d., starting at one day before, or 1, 2, 3, or 4 days after AdV6 injection.
Body weights and any signs of morbidity in the hamsters were recorded daily. At 7 days post challenge, 5 hamsters from each group (designated at the start of the experiment) were sacrificed, and gross pathological observations were performed.

AdV6 [2] = test: Immunofluorescence assay (DBP and hexon staining), AdV6-infected A549 cells; format: cell-based, human adenovirus; conditions: 27 hours post-infection
Experimental: Human A549 cells on glass coverslips in 6-well plates were infected at an MOI of 5 PFU/cell with either AdV5 or AdV6 or were mock-infected. After 1 hour, filociclovir was added to a final concentration of 0, 4, 10, or 40 μM. At 27 hours post-infection, the A549 cells were fixed in paraformaldehyde (3.7% in PBS) and permeabilized with methanol. Cells were stained for the Adenovirus DNA-binding protein and adenovirus hexon. DBP staining will be […] and uniform during early AdV infection (prior to AdV DNA replication). DBP associates with replication centers as the infection progresses. The replication centers are initially small “dots” (each dot results from one incoming AdV genome). The replication centers will expand and “multiply” as DNA replication takes place. The nuclei become enlarged and misshapen as infection progresses. AdV hexon, the most abundant component of the AdV viral capsid, is not expressed until after DNA replication is taking place and is therefore considered to be a “late” AdV protein.

adenovirus 6 (AdV6) [3] = test: CPE reduction assay, adenovirus 6; format: cell-based, human adenovirus
Experimental: (§1) Similar experiments were carried out with filociclovir against adenovirus 6, adenovirus 7, and adenovirus 8.

adenovirus 7 (AdV7) = test: CPE reduction assay, adenovirus 7; format: cell-based, human adenovirus
Experimental: as §1

adenovirus 6 (AdV6) [4] = test: Neutral red survival assay, AdV6-infected A549 cells; format: cell-based, human adenovirus; conditions: FIG. 2, A549 cells, 6 days post-infection
Excerpt: The neutral red cell cytotoxicity assay was used to detect cell viability or drug cytotoxicity. The principle of this assay is based on the detection of viable cells via the uptake of the dye neutral red. Neutral red is a eurhodin dye that stains lysosomes in viable cells. Viable cells can take up neutral red via active transport and incorporate the dye into their lysosomes, but non-viable cells are unable not take up this chromophore. Consequently, after washing, viable cells can release the incorporated dye under acidified-extracted conditions. The amount of released dye can be quantified and used to determine the total number of viable cells or drug cytotoxicity. As such, cytotoxicity is expressed as a concentration-dependent reduction of the uptake of neutral red after exposure to the compound under investigation.
The neutral red survival assays were carried out in a 96-well format. Briefly, A549 adenocarcinomic human alveolar basal epithelial cells were plated at a concentration of 6×10^3 cells per well one day prior to infection. AdV6 infections were carried out at 5×10^3 PFU per well (an estimated 0.5 PFU/cell at the time of infection). […] Filociclovir plates were read and the results were graphed using GraphPad Prism graphing and statistical software (GraphPad Software, San Diego, Calif.).

[5] = Pharmacokinetics of filociclovir in immunosuppressed hamsters; format: in vivo, Syrian hamsters; conditions: 6 hours after administration
Experimental: In order to test the pharmacokinetics of filociclovir, we use a Syrian male hamster model of adenovirus infection. Syrian hamsters were given either an oral (p.o. 50 mg/kg) or intravenous (i.v. 10 mg/kg) dose of filociclovir. […] For i.v. administration, filociclovir was dissolved in DMSO (Sigma D2650) and then diluted with water to a final concentration of 5 mg/ml for filociclovir and 75% DMSO. The dosing solutions were prepared one day before use and stored at 4° C. Male Syrian hamsters were purchased from Envigo (Hackensack, N.J.) at ˜100 g body weight. […] The animals received three injections of CP before the administration of filociclovir. Two groups of animals (12 hamsters/group) were used for the two routes of administrations. In addition, three untreated animals (the same three hamsters for both routes) served as mock controls. The p.o. and i.v. experiments were performed on two consecutive days. As the hamsters weighed approximately 100 g, (+/−10%), they were administered 1 ml and 0.2 ml for the p.o. and i.v. routes, respectively, to achieve the desired dose. For both routes, 3 hamsters were sacrificed at 0.5, 1, 3, and 6 hr post dosing. […]

adenovirus 3 (AdV3) = test: Efficacy against adenovirus 3 (data not shown)

Which results are given for `Nc1nc2c(ncn2/C=C2/CC2(CO)CO)c(=O)[nH]1` [FCV, 2-amino-9-{(Z)-[2,2-bis(hydroxymethyl)cyclopropylidene]methyl}-3,9-dihydro-6H-purin-6-one]?
concentration as low as which is effective to reduce AdV replication (Adenovirus 5 (AdV5); FIG. 1, AdV5): 0.2 µM; EC50 (Adenovirus 5 (AdV5); Human mastadenovirus C, AdV5, HFF cells, 384 well CPE, average and SD from five independent experiments, read-out: EC50): 2.2 ± 0.4 µM; morbidity and mortality (survival) (AdV6 [1]; 10 mg/kg p.o. q.d. started day −1, +1, +2, +3 (p=0.0005) or +4 (p=0.0023) vs AdV6+Vehicle, listed as filociclovir): efficacious; also recorded: effective to prevent morbidity and mortality; prevention of pathology caused by intravenous AdV6 infection (AdV6 [1]; 10 mg/kg p.o. q.d., up to 4 days post-infection): safe and effective; AdV6 replication in the liver (AdV6 [1]; 10 mg/kg, start 4 days post challenge): inhibits AdV6 replication in the liver; liver pathology, transaminase (ALT) levels (AdV6 [1]; 10 mg/kg, start up to 4 days post challenge, day +4 p=0.1452): mitigates liver pathology; hexon-positive cells (AdV6 [2]; AdV6, 4 μM): Some hexon-positive cells; hexon-positive cells (AdV6 [2]; AdV6, 10 μM): extremely few hexon-positive cells; hexon-positive cells (AdV6 [2]; AdV6, 40 μM): No hexon-positive cells; CC50/EC50 (adenovirus 6 (AdV6) [3]): 27; EC50 (adenovirus 6 (AdV6) [3]; Human mastadenovirus C, unit not given in Table 2 (Table 1 in μM)): 3.67 µM; CC50/EC50 (adenovirus 7 (AdV7)): >144; EC50 (adenovirus 7 (AdV7); Human mastadenovirus B, unit not given in Table 2 (Table 1 in μM)): 1.04 µM; concentration as low as which is effective to improve viability of AdV6 infected cells (adenovirus 6 (AdV6) [4]): 10^−1 μM; detectability after administration ([5]; i.v. 10 mg/kg): still detectable; detectability after administration ([5]; p.o. 50 mg/kg): still detectable; treat or prevent infection (adenovirus 3 (AdV3)): effective
